Measured values published in PubChem BioAssay (NCI).
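Cultured in 96-well plates, cells were exposed to test compound for 48 hours across five concentrations. Here, GI50 denotes the concentration required for 50% inhibition of growth. TGI: concentration producing complete growth inhibition.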

Assays:
Assay in all cases: growth of human tumour cells (NCI), 48 h
[1] = tested on: COLO 205 colon
[2] = tested on: CCRF-CEM leukemia
[3] = tested on: HS 578T breast
[4] = tested on: HCT-15 colon
[5] = tested on: SK-MEL-28 melanoma
[6] = tested on: HCC-2998 colon
[7] = tested on: MOLT-4 leukemia
[8] = tested on: HOP-92 NSCLC
[9] = tested on: SNB-75 CNS
[10] = tested on: UACC-62 melanoma
[11] = tested on: SW-620 colon
[12] = tested on: OVCAR-4 ovarian
[13] = tested on: SF-268 CNS
[14] = tested on: SN12C renal
[15] = tested on: DU-145 prostate
[16] = tested on: BT-549 breast
[17] = tested on: MDA-MB-435
[18] = tested on: SK-MEL-5 melanoma
[19] = tested on: EKVX NSCLC
[20] = tested on: CAKI-1 renal
[21] = tested on: ACHN renal
[22] = tested on: A498 renal
[23] = tested on: HL-60(TB) leukemia
[24] = tested on: TK-10 renal
[25] = tested on: K-562 leukemia
[26] = tested on: UO-31 renal
[27] = tested on: T-47D breast
[28] = tested on: NCI/ADR-RES ovarian
[29] = tested on: RPMI-8226 leukemia
[30] = tested on: NCI-H460 lung
[31] = tested on: HT29 colon
[32] = tested on: OVCAR-5 ovarian
[33] = tested on: SR leukemia

SMILES: [Cl][Ru].c1ccc(-c2cc(-c3ccccn3)nc(-c3ccccn3)c2)cc1.c1ccc(-c2ccnc3c2ccc2c(-c4ccccc4)ccnc23)cc1
- GI50 [1]: 182 nM
- TGI [1]: 335 nM
- GI50 [2]: 415 nM
- GI50 [3]: 275 nM
- TGI [3]: 919 nM
- GI50 [4]: 2080 nM
- TGI [4]: 4730 nM
- GI50 [5]: 418 nM
- TGI [5]: 1580 nM
- GI50 [6]: 356 nM
- TGI [6]: 1450 nM
- GI50 [7]: 332 nM
- TGI [7]: 1620 nM
- GI50 [8]: 139 nM
- TGI [8]: 543 nM
- GI50 [9]: 179 nM
- TGI [9]: 829 nM
- GI50 [10]: 292 nM
- TGI [10]: 1170 nM
- GI50 [11]: 451 nM
- TGI [11]: 1670 nM
- GI50 [12]: 424 nM
- TGI [12]: 2500 nM
- GI50 [13]: 489 nM
- GI50 [14]: 266 nM
- TGI [14]: 915 nM
- GI50 [15]: 529 nM
- GI50 [16]: 224 nM
- TGI [16]: 869 nM
- GI50 [17]: 322 nM
- TGI [17]: 1010 nM
- GI50 [18]: 577 nM
- TGI [18]: 1840 nM
- GI50 [19]: 352 nM
- TGI [19]: 2360 nM
- GI50 [20]: 3150 nM
- TGI [20]: 26600 nM
- GI50 [21]: 3230 nM
- TGI [21]: 25700 nM
- GI50 [22]: 1930 nM
- TGI [22]: 4560 nM
- GI50 [23]: 252 nM
- TGI [23]: 696 nM
- GI50 [24]: 1600 nM
- TGI [24]: 4150 nM
- GI50 [25]: 301 nM
- TGI [25]: 4660 nM
- GI50 [26]: 2620 nM
- TGI [26]: > 45800 nM
- GI50 [27]: 270 nM
- TGI [27]: 1070 nM
- GI50 [28]: 31100 nM
- TGI [28]: > 100000 nM
- GI50 [29]: 232 nM
- TGI [29]: 727 nM
- GI50 [30]: 351 nM
- TGI [30]: 1120 nM
- GI50 [31]: 333 nM
- TGI [31]: 1310 nM
- GI50 [32]: 396 nM
- TGI [32]: 1710 nM
- TGI [33]: 1090 nM
